In general, EC50 refers to the concentration at which the effect is half-maximal.

Structures are written as SMILES. Counter-ions that a name gives are not always drawn. Like-named read-outs stand apart in the source and are kept apart here.

Eleven compounds from patent US11666594B2, “Antibody-drug conjugates comprising a cyclic dinucleotide” (TAKEDA PHARMACEUTICAL COMPANY LIMITED, priority 2016, dated 2023) can be followed below.

The subject of data set [1] is B16F10 mouse tumor cells. The data set can be described thus: Anti-tumor effect in B16F10 syngeneic mice model. The data set is classed as in vivo. As to conditions: B16F10, C57BL/6 mice; intravenous, q3dx3; Ex3a 30 mg/kg, Ex14 1.0 mg/kg. The method, then: (§1) 8×10^4 B^16F10 and 2×10^5 CT-26 mouse tumor cells were subcutaneously implanted in the flank of female C57BL/6 (B16F10) and Balb/C (CT-26) mice (n=7 per group). Vehicle (1×PBS), compound Ex3a (30 mg/kg) or Ex14 (1.0 mg/kg) were intravenously administered (final volume of […]) to tumor-bearing mice once the tumor volume has reached 100 mm^3 (Day 0). Vehicle, Ex3a or Ex14 were given every 3 days for a total of 3 doses (q3dx3). Tumor and body weight measurements were taken three times per week using vernier calipers and mettler scale, respectively. Tumor volumes were determined by multiplying the square of the width (‘W’), measured along the […] of the tumor, by one-half the length (‘L’) measured along the […] of the tumor (V=W^2×0.5 L)

Data set [2] deals with CT-26 mouse tumor cells. Description: Anti-tumor effect in colon carcinoma CT-26 syngeneic mice model. Conditions: CT-26, Balb/C mice; intravenous, q3dx3; Ex3a 30 mg/kg, Ex14 1.0 mg/kg. The data set is classed as in vivo. The procedure:
as §1

In data set [3] the target is WT STING (Homo sapiens (Human), UniProt Q86WV6, H232R). Description: Reporter gene assay (2): ISRE NanoLuc reporter in 293T cells, with digitonin, WT STING. As to conditions: for EC50: with digitonin, read-out: STING-293T cell EC50 (μM) Reporter with digitonin (B); for activation at 30 µM: HEK-293T, read-out: activity level against WT STING of test compound (30 μM). Type of data set: cell-based. The procedure:
The culture solution was removed, and the test compound diluted with assay buffer (50 mM HEPES pH 7.0, 100 mM KCl, 3 mM MgCl2, 85 mM Sucrose, 0.1 mM DTT, 0.2% BSA, 1 mM ATP, 0.1 mM GTP, 10 μg/ml Digitonin) was added thereto by 15 μL/well. […] Luminescence signals derived from firefly luciferase and NanoLuc Luciferase were each measured using EnVision (PerkinElmer, Waltham, Mass., US) according to Nano-Glo Dual-Luciferase Reporter Assay System (Promega, Fitchburg, Wis., US) protocol. The ratio of the count of NanoLuc Luciferase divided by the count of firefly luciferase was used for culculation.

The test system of data set [4] is THP1-Dual cells. The data set can be described thus: THP-1 Dual Lucia reporter gene assay. As to conditions: 20 hours; read-out: THP-1 Dual cell EC50 (μM) Reporter. The data set is classed as cell-based, human. The procedure:
THP1-Dual™ cells (InvivoGen #thpd-nfis) were derived from the human THP-1 monocyte cell line by stable integration of the Lucia luciferase gene, a secreted luciferase reporter gene, under the control of an ISG54 (interferon-stimulated gene) minimal promoter in conjunction with five interferon (IFN)-stimulated response elements. On the day of experiment, the cells were plated to a black, 384-well plate (Corning 356697) at 7500 cells/25 μL per well density in growth media (RPMI 1640, 2 mM L-glutamine, 25 mM HEPES, 10% heat-inactivated fetal bovine serum, 100 μg/mL Normocin™, 100 U/mL-100 μg/mL Pen-Strep, 10 μg/mL of blasticidin, and 100 μg/mL of Zeocin). The cell plates were dosed with 62.5 nL of the testing compounds, and then incubated at 37° C. for 20 hours. At the end of the incubation, 15 μL/well of the QUANTI-Luc™ (InvivoGen #rep-qlc1) were added, and luminescence was measured immediately using the LeadSeeker.

A short description of data set [5]: Human plasma stability assay. The data set is classed as in vitro ADME. As to conditions: elimination rate constant k; heparinized human plasma, 37° C., up to 24 hours. The method, then:
The compound was incubated in heparinized human plasma at 37° C. for 0, 1, 2, 4, 8 and 24 hours, and the change in compound concentration was measured by LC/MS/MS method. The elimination rate constant (=k(/h)) was calculated based on the fitted curve assuming the exponential decrease of concentration as follows; concentration at time x=initial concentration*exp(−k*x).

Setting [6] is: 30 μM, digitonin, 2′,3′-cGAMP (30 μM) = 100%.

Chain of WT STING (Q86WV6 whole entry H232R): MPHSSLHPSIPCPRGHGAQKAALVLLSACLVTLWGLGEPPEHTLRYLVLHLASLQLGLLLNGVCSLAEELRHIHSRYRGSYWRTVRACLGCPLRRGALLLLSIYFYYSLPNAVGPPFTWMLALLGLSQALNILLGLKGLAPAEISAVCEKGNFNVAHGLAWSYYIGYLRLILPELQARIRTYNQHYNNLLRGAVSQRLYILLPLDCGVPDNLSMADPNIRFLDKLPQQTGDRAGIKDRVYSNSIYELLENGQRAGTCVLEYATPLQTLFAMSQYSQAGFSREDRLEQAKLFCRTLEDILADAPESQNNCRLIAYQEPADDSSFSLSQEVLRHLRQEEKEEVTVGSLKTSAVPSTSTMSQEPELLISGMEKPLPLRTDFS

On to `Nc1ncnc2c1ncn2[C@@H]1O[C@@H]2COP(=O)(O)O[C@@H]3[C@H](O)[C@@H](COP(=O)(S)O[C@H]2[C@H]1F)O[C@H]3n1cc(F)c2c(=O)[nH]cnc21` (stereo partly drawn) [Ex3a, disodium (5R,7R,8R,2aR,14R,15R,5aR,16R)-14-(6-amino-9H-purin-9-yl)-15-fluoro-7-(5-fluoro-4-oxo-3,4-dihydro-7H-pyrrolo[2,3-d]pyrimidin-7-yl)-16-hydroxy-2-sulfidooctahydro-12H-5,8-methanofuro[3,2-1][1,3,6,9,11,2,10]pentaoxadiphosphacyclotetradecin-10-olate 2,10-dioxide], for which the anti-tumor effect entry in data set [1] and in data set [2] was “anti-tumor effects were observed” each time. In addition, the half-maximal effective concentration (EC50) in data set [3] was 0.13 µM; in data set [4] it was 5.6 µM. Moreover, the “Human plasma stability” value in data set [5] was 0.58 h⁻¹.
In the case of `Nc1ncnc2c1ncn2[C@@H]1O[C@@H]2COP(=O)(O)O[C@@H]3[C@H](O)[C@@H](COP(=O)(O)O[C@H]2[C@H]1F)O[C@H]3n1cc(F)c2c(=O)[nH]cnc21` [Example 1, 7-((5R,7R,8R,12aR,14R,15R,15aR,16R)-14-(6-amino-9H-purin-9-yl)-15-fluoro-2,10,16-trihydroxy-2,10-dioxidooctahydro-12H-5,8-methanofuro[3,2-1][1,3,6,9,11,2,10]pentaoxadiphosphacyclotetradecin-7-yl)-5-fluoro-3,7-dihydro-4H-pyrrolo[2,3-d]pyrimidin-4-one di-triethylamine salt], the activation at 30 µM in data set [3] (setting [6]) was 97%.
On to `Nc1ncnc2c1ncn2[C@@H]1O[C@@H]2COP(=O)(O)O[C@@H]3[C@H](O)[C@@H](COP(=O)(O)O[C@H]2[C@H]1F)O[C@H]3n1cc(F)c2c(=O)[nH]cnc21` [Example 1a, 7-((5R,7R,8R,12aR,14R,15R,15aR,16R)-14-(6-amino-9H-purin-9-yl)-15-fluoro-2,10,16-trihydroxy-2,10-dioxidooctahydro-12H-5,8-methanofuro[3,2-1][1,3,6,9,11,2,10]pentaoxadiphosphacyclotetradecin-7-yl)-5-fluoro-3,7-dihydro-4H-pyrrolo[2,3-d]pyrimidin-4-one disodium salt], for which the activation at 30 µM in data set [3] (setting [6]) was determined as 99%.
As to `Nc1ncnc2c1ncn2[C@@H]1O[C@@H]2COP(=O)(O)O[C@@H]3[C@H](O)[C@@H](COP(=O)(S)O[C@H]2[C@H]1F)O[C@H]3n1cc(F)c2c(=O)[nH]cnc21` (stereo partly drawn) [Example 3, 7-((2R,5R,7R,8R,12aR,14R,15R,15aR,16R)-14-(6-amino-9H-purin-9-yl)-15-fluoro-10,16-dihydroxy-2,10-dioxido-2-sulfanyloctahydro-12H-5,8-methanofuro[3,2-1][1,3,6,9,11,2,10]pentaoxadiphosphacyclotetradecin-7-yl)-5-fluoro-3,7-dihydro-4H-pyrrolo[2,3-d]pyrimidin-4-one 1.7 triethylamine salt], the activation at 30 µM in data set [3] (setting [6]) was determined as 97%.
Take `Nc1ncnc2c1ncn2[C@@H]1O[C@@H]2COP(=O)(S)O[C@@H]3[C@H](O)[C@@H](COP(=O)(S)O[C@H]2[C@H]1O)O[C@H]3n1cc(F)c2c(=O)[nH]cnc21` (stereo partly drawn) [Example 5, 7-((5R,7R,8R,12aR,14R,15R,15aS,16R)-14-(6-amino-9H-purin-9-yl)-15,16-dihydroxy-2,10-dioxido-2,10-disulfanyloctahydro-12H-5,8-methanofuro[3,2-1][1,3,6,9,11,2,10]pentaoxadiphosphacyclotetradecin-7-yl)-5-fluoro-3,7-dihydro-4H-pyrrolo[2,3-d]pyrimidin-4-one di-triethylamine salt (Optical Isomer)]: the activation at 30 µM in data set [3] (setting [6]) stood at 102%. The concentration for a half-maximal effect (EC50) in data set [3] was 0.19 µM. The “Human plasma stability” value in data set [5] was under 0.01 h⁻¹.
For `Nc1nc2c(ncn2[C@@H]2O[C@@H]3COP(=O)(O)O[C@H]4[C@@H](O)[C@H](c5cnn6c(N)ncnc56)O[C@@H]4COP(=O)(O)O[C@@H]2[C@@H]3O)c(=O)[nH]1` [Example 13, 2-amino-9-((5R,7R,8R,12aR,14S,15S,15aS,16R)-14-(4-aminopyrazolo[1,5-a][1,3,5]triazin-8-yl)-2,10,15,16-tetrahydroxy-2,10-dioxidooctahydro-12H-5,8-methanofuro[3,2-1][1,3,6,9,11,2,10]pentaoxadiphosphacyclotetradecin-7-yl)-1,9-dihydro-6H-purin-6-one di-triethylamine salt], the activation at 30 µM in data set [3] worked out at 99%.
Regarding `Nc1ncnc2c1ncn2[C@@H]1O[C@@H]2COP(=O)(S)O[C@@H]3[C@H](O)[C@@H](COP(=O)(S)O[C@H]2[C@H]1F)O[C@H]3n1cc(F)c2c(=O)[nH]cnc21` (stereo partly drawn) [Example 14, 7-((2R,5R,7R,8R,10R,12aR,14R,15R,15aR,16R)-14-(6-amino-9H-purin-9-yl)-15-fluoro-16-hydroxy-2,10-dioxido-2,10-disulfanyloctahydro-12H-5,8-methanofuro[3,2-1][1,3,6,9,11,2,10]pentaoxadiphosphacyclotetradecin-7-yl)-5-fluoro-3,7-dihydro-4H-pyrrolo[2,3-d]pyrimidin-4-one disodium salt], the anti-tumor effect result in data set [1] and in data set [2] was “anti-tumor effects were observed” each time. Also, the concentration for a half-maximal effect (EC50) in data set [3] was found to be 0.13 µM. Further, in data set [5], the “Human plasma stability” value was under 0.01 h⁻¹.
Regarding `Nc1ncnc2c1ncn2[C@@H]1O[C@@]23CO[C@@H]1[C@@H]2OP(=O)(O)OC[C@H]1O[C@@H](n2cc(F)c4c(=O)[nH]cnc42)[C@H](OP(=O)(O)OC3)[C@@H]1O` [Example 16, 7-((5R,7R,8R,12aR,14R,15R,15aS,18R)-14-(6-amino-9H-purin-9-yl)-2,10,18-trihydroxy-2,10-dioxidohexahydro-14H-15,12a-(epoxymethano)-5,8-methanofuro[3,2-1][1,3,6,9,11,2,10]pentaoxadiphosphacyclotetradecin-7(12H)-yl)-5-fluoro-3,7-dihydro-4H-pyrrolo[2,3-d]pyrimidin-4-one di-triethylamine salt], in data set [3] (setting [6]), the activation at 30 µM worked out at 114%.
Take `Nc1ncnc2c1ncn2[C@@H]1O[C@@]23CO[C@@H]1[C@@H]2OP(=O)(S)OC[C@H]1O[C@@H](n2cc(F)c4c(=O)[nH]cnc42)[C@H](OP(=O)(O)OC3)[C@@H]1O` (stereo partly drawn) [Example 17, 7-((5R,7R,8R,12aR,14R,15R,15aS,18R)-14-(6-amino-9H-purin-9-yl)-10,18-dihydroxy-2,10-dioxido-2-sulfanylhexahydro-14H-15,12a-(epoxymethano)-5,8-methanofuro[3,2-1][1,3,6,9,11,2,10]pentaoxadiphosphacyclotetradecin-7(12H)-yl)-5-fluoro-3,7-dihydro-4H-pyrrolo[2,3-d]pyrimidin-4-one di-trimethylamine salt]: in data set [3], the activation at 30 µM is 110%.
For the compound `Nc1nc2c(ncn2[C@@H]2O[C@@H]3COP(=O)(O)O[C@@H]4[C@H](O)[C@@H](COP(=O)(O)O[C@H]3[C@H]2F)O[C@H]4n2cc(F)c3c(=O)[nH]cnc32)c(=O)[nH]1` [Example 19, 2-amino-9-((5R,7R,8R,12aR,14R,15R,15aR,16R)-15-fluoro-7-(5-fluoro-4-oxo-3,4-dihydro-7H-pyrrolo[2,3-d]pyrimidin-7-yl)-2,10,16-trihydroxy-2,10-dioxidooctahydro-12H-5,8-methanofuro[3,2-1][1,3,6,9,11,2,10]pentaoxadiphosphacyclotetradecin-14-yl)-1,9-dihydro-6H-purin-6-one di-triethylamine salt], in data set [3], the activation at 30 µM worked out at 101%.
As for `Nc1nc2c(ncn2[C@@H]2O[C@@H]3COP(=O)(O)O[C@H]4[C@@H](O)[C@H](n5cnc6c(N)ncnc65)O[C@@H]4COP(=O)(O)O[C@@H]2[C@@H]3O)c(=O)[nH]1` [cGAMP, 2′,3′-cGAMP, reference compound], the “Human plasma stability” value in data set [5] was determined as 1.39 h⁻¹.
